Test results: patent US20070287848A1, “Silicon Compound Containi-Electron Conjugated-System Molecule and Process for Producing the Same” (priority 2004, published 2007)

How the values were obtained:
Solubility in toluene = format: physicochemical; conditions: in 1 ml of toluene; for solubility relative to that of Th4-SiCl3: ratio to Th4-SiCl3
Solubility in THF = format: physicochemical; conditions: in 1 ml of THF

SMILES: CCCCCCCCCCCCCCCCCCc1ccc(-c2ccc(-c3ccc(-c4ccc([Si](OC)(OC)OC)s4)s3)s2)s1 [C18-Th4-Si(OCH3)3]
- solubility relative to that of Th4-SiCl3 (Solubility in toluene): about 9.5 times

SMILES: Cl[Si](Cl)(Cl)c1ccc(-c2ccc(-c3ccc(-c4cccs4)s3)s2)s1 [Th4-SiCl3, reference compound]
- solubility (Solubility in toluene): about 1.0 mg/ml

SMILES: CCCCCCCCCCCCCCCCCCc1ccc(-c2ccc(-c3ccc([Si](Cl)(Cl)Cl)cc3)cc2)cc1 [C18-P3-SiCl3]
- solubility relative to that of P3-SiCl3 (Solubility in THF; ratio to P3-SiCl3): about 2.8 times

SMILES: Cl[Si](Cl)(Cl)c1ccc(-c2ccc(-c3ccccc3)cc2)cc1 [P3-SiCl3, reference compound]
- solubility (Solubility in THF): about 2.0 mg/ml

SMILES: CCCCCCCCCCCCCCCCCCc1ccc(-c2ccc(-c3ccc(-c4ccc([Si](OCC)(OCC)OCC)s4)s3)s2)s1 [C18-Th4-Si(OC2H5)3]
- solubility relative to that of Th4-SiCl3 (Solubility in toluene): about 10 times
